Assay results from publication PMC11594175 (2024).

Test system: HD3 with inactivated substrate (rA to dA at cleavage site) (DNA, ribozyme, dA in place of rA at the cleavage site of the substrate strand) CATCTCTTAACGGGGCTGTGCGGCTAGGAAGTAATAGTGAG/CTCACTATAGGAAGAGATG
Experiment: CD titration at 267 nm
Conditions: 500 mM Na+ (NaCl), 500 mM K+ (KCl), no Mg2+; 50 mM HEPES pH 7.5, 0.5 mM EDTA, 25 °C; 30 µM DNA; 0-10 mM histidine

N[C@@H](Cc1cnc[nH]1)C(=O)O
Ka(CD): ~ 2.0 × 10^3 M^-1
